Measurements: patent publication US8226966B2, “Fungicide N-6-membered fused (hetero) aryl-methylene-N-cycloalkyl carboxamide derivatives” (Bayer Cropscience AG, priority 2007, dated 2012)

Test: logP by HPLC on reversed-phase column (C 18), EEC Directive 79/831 Annex V.A8
Type: physicochemical
Conditions: 40° C., 0.1% aqueous formic acid and acetonitrile
Procedure: In the following table, the logP values were determined in accordance with EEC Directive 79/831 Annex V.A8 by HPLC (High Performance Liquid Chromatography) on a reversed-phase column (C 18), using the method described below: Temperature: 40° C.; Mobile phases: 0.1% aqueous formic acid and acetonitrile linear gradient from 10% acetonitrile to 90% acetonitrile. Calibration was carried out using unbranched alkan-2-ones (comprising 3 to 16 carbon atoms) with known logP values (determination of the logP values by the retention times using linear interpolation between two successive alkanones).

[1] = linear gradient from 10% to 90% acetonitrile
[2] = linear gradient 10% to 90% acetonitrile

| SMILES | LogP [1] | LogP [2] |
| --- | --- | --- |
| Cc1nn(C)c(F)c1C(=S)N(Cc1ccc2ccccc2c1Br)C1CC1 [Example 25] | 4.39 | – |
| COc1nn(C)cc1C(=O)N(Cc1ccc2ccccc2c1Br)C1CC1 [Example 27] | 3.24 | – |
| COc1nn(C)cc1C(=S)N(Cc1ccc2ccccc2c1Br)C1CC1 [Example 28] | 4.25 | – |
| Cc1nn(C)c(F)c1C(=O)N(Cc1ccc(Br)c2ccccc12)C1CC1 [Example 54] | 3.62 | – |
| Cn1cc(C(=O)N(Cc2ccc(Br)c3ccccc23)C2CC2)c(C(F)F)n1 [Example 55] | 3.69 | – |
| Cc1cc(C(=O)N(C2CC2)C(C)c2ccc(Br)c3ccccc23)c(C)o1 (stereo not shown) [Example 60] | 5.2 | – |
| Cc1nn(C)c(F)c1C(=O)N(Cc1ccc(Br)c2cccnc12)C1CC1 [Example 167] | – | 2.9 |
| COc1ccc2ccc(OC)c(CN(C(=O)c3c(C)nn(C)c3F)C3CC3)c2c1 [Example 222] | – | 2.96 |

More lines, now with the values ahead:

| LogP [1] | LogP [2] | SMILES |
| --- | --- | --- |
| 3.68 | – | Cn1cc(C(=O)N(Cc2ccc3ccccc3c2Br)C2CC2)c(C(F)F)n1 [Example 26] |
| 3.25 | – | Cc1ccc2ccccc2c1CN(C(=O)c1cn(C)nc1C(F)F)C1CC1 [Example 40] |
| 2.92 | – | COC(=O)C(c1cccc2ccccc12)N(C(=O)c1c(C)nn(C)c1F)C1CC1 (stereo not shown) [Example 63] |
| 3.02 | – | COC(=O)C(c1cccc2ccccc12)N(C(=O)c1cn(C)nc1C(F)F)C1CC1 (stereo not shown) [Example 69] |
| 2.86 | – | COc1nn(C)cc1C(=O)N(C1CC1)C(C)c1cccc2ccccc12 (stereo not shown) [Example 75] |
